Tests used:
[1] = Biodistribution of radiotracers in normal mice; assay type: in vivo, mouse; settings: normal male mice
Method in brief: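 Male CD-1 mice received 35 μCi [^68Ga] radiotracer (0.2 nmole ligand) by tail vein. Four mice per time point sacrificed at 2, 30, 60 and 120 min p.i.; organs and blood weighed and gamma counted. %ID/g calculated against a standard dilution of the dose, decay-corrected.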

[2] = test system: LNCaP tumor bearing nude mice; experiment: Biodistribution of [68Ga]labeled ligand in PSMA positive tumor bearing nude mice; assay type: in vivo, mouse; settings: 1 h post-injection, i.v., n = 3
Experimental: In a dish contained 5×10^6 cells of LNCaP in 50% Matrigel (Becton Dickinson, Heidelberg, Germany) were subcutaneously inoculated into the left shoulder of male 5- to 6-week-old CD-1 nu/nu mice (Charles River Laboratories). The tumors were allowed to grow for 8 weeks until approximately 0.5 cm^3 in size.
The ^68Ga-radiolabeled compounds were injected via tail vein (25 μCi per mouse; 0.1-0.2 nmol). At 1 h after injection, the animals were sacrificed. Organs of interest were dissected and weighed. The radioactivity was measured with a gamma counter and calculated as % ID/g.

[3] = test system: PSMA-expressing LNCaP cells; experiment: Cell binding and internalization; assay type: cell-based, human; settings: for Cell surface binding activity / Internalized activity: 37° C.
Experimental: The cellular uptake and internalization kinetics of the [^68Ga]1a, [^68Ga]5a and [^68Ga]5b were determined using PSMA-expressing LNCaP cells. Furthermore, to be able to discriminate between total cellular activity (sum of membrane-associated and internalized activity) and internalized activity, all incubations were followed by a washing step with mild acid at 4° C. to remove specifically cell-surface bound radioligand by displacement.
LNCaP cells (in 6-well plates in triplicates) were incubated in RPMI-1640 medium with [^68Ga]1a, [^68Ga]5a or [^68Ga]5b for 0-2 h at 37° C. At the indicated time, the medium was removed and the cells were washed twice and then incubated with a mild acid buffer (50 mM glycine, 150 mM NaCl, pH 3.0) at 4° C. for 5 min. The supernatant (containing cell surface-bound radioactivity) was pooled and the cell pellet (containing internalized radioactivity) was collected with filter paper and then radioactivity in supernatant and cell pellet was counted on a gamma counter.
LNCaP cells were incubated with [^68Ga]1a, [^68Ga]5a and [^68Ga]5b for up to 2 h at 37° C. to determine whether the compound is internalized by endocytosis. The cells were then washed with a mild acid buffer to remove extracellularly bound compound.
Non specific binding (NSB) was evaluated by blocking with 20 μM PMPA. Specificity of cell uptake (SB) was calculated by subtracting the respective signals resulting from PMPA blocking. Values are expressed as % of applied radioactivity bound to 10^6 cells.

[4] = test system: LNCaP PSMA+ and PC-3 PSMA− tumor bearing mice; experiment: Small animal microPET imaging of [68Ga]5b in tumor bearing nude mice; assay type: in vivo, mouse
Experimental: This study was performed in a small animal imaging facility Male CD-1-nu/nu mice were implanted subcutaneously with 5×10^6 LNCaP cells and PC-3 cells. When the tumors reached approximately 5-10 mm in diameter, the mice were used for microPET imaging. Mice bearing LNCaP tumor and PC-3 tumors were injected via the tail vein with ˜0.5 mCi of [^68Ga]5b. Imaging studies were carried out under general anesthesia of the animals, induced with inhalation of […] and maintained with inhalation of […] isoflurane in 30% oxygen/air. Animals were positioned prone in the scanner. Whole body scan was performed for 15 min from 60 min post-injection of radiotracers. PET images were generated using the AMIDE software. MicroPET images obtained in LNCaP and PC-3 tumor xenografts from 60 min to 75 min after injection of [^68Ga]5b are shown in FIGS. 5A-5C.

[5] = 60 min to 75 min after injection

With O=C(O)CCc1ccc2c(c1)C[N+]13CC[N+]45CC(=O)[O][68Ga-3]14([O]C(=O)C3)([O]2)[O]c1ccc(CCC(=O)NCC(=O)N[C@@H](Cc2ccc(OCC(=O)N[C@@H](Cc3ccccc3)C(=O)NCCCC[C@H](NC(=O)N[C@@H](CCC(=O)O)C(=O)O)C(=O)O)cc2)C(=O)O)cc1C5 (stereo partly shown) [[^68Ga]5b] the “Biodistribution: Pancreas” value ([1]; 30 min) was 0.80 ± 0.09 % dose/g, the “Biodistribution: Skin” value ([1]; 30 min) was 1.14 ± 0.15 % dose/g and the “Biodistribution: Spleen” value ([1]; 30 min) was 1.70 ± 0.44 % dose/g. For the same compound, the “Biodistribution: Blood” value ([1]; 60 min) was 0.48 ± 0.11 % dose/g, the “Biodistribution: Bone” value ([1]; 60 min) was 0.38 ± 0.04 % dose/g and the “Biodistribution: Brain” value ([1]; 60 min) was 0.03 ± 0.00 % dose/g. For the same compound, the “Biodistribution: Heart” value ([1]; 60 min) was 0.40 ± 0.09 % dose/g, the “Biodistribution: Kidney” value ([1]; 60 min) was 62.77 ± 12.55 % dose/g and the “Biodistribution: Liver” value ([1]; 60 min) was 0.54 ± 0.09 % dose/g. The “Biodistribution: Lung” value ([1]; 60 min) was 1.28 ± 0.31 % dose/g, the “Biodistribution: Muscle” value ([1]; 60 min) was 0.31 ± 0.07 % dose/g and the “Biodistribution: Pancreas” value ([1]; 60 min) was 0.52 ± 0.02 % dose/g. For the same compound, the “Biodistribution: Skin” value ([1]; 60 min) was 0.58 ± 0.19 % dose/g, the “Biodistribution: Spleen” value ([1]; 60 min) was 1.71 ± 0.66 % dose/g and the “Biodistribution: Blood” value ([1]; 120 min) was 0.27 ± 0.07 % dose/g. The “Biodistribution: Bone” value ([1]; 120 min) was 0.26 ± 0.01 % dose/g, the “Biodistribution: Brain” value ([1]; 120 min) was 0.02 ± 0.00 % dose/g and the “Biodistribution: Heart” value ([1]; 120 min) was 0.22 ± 0.06 % dose/g. The “Biodistribution: Kidney” value ([1]; 120 min) was 49.00 ± 4.76 % dose/g, the “Biodistribution: Liver” value ([1]; 120 min) was 0.37 ± 0.06 % dose/g and the “Biodistribution: Lung” value ([1]; 120 min) was 0.61 ± 0.07 % dose/g. For the same compound, the “Biodistribution: Muscle” value ([1]; 120 min) was 0.16 ± 0.01 % dose/g, the “Biodistribution: Pancreas” value ([1]; 120 min) was 0.32 ± 0.02 % dose/g and the “Biodistribution: Skin” value ([1]; 120 min) was 0.26 ± 0.02 % dose/g. The “Biodistribution: Spleen” value ([1]; 120 min) was 1.39 ± 0.38 % dose/g, the “Organ distribution: Blood” value [2] was 0.46 ± 0.04 % dose/g and the “Organ distribution: Bone” value [2] was 0.27 ± 0.07 % dose/g. The “Organ distribution: Brain” value [2] was 0.05 ± 0.01 % dose/g, the “Organ distribution: Heart” value [2] was 0.51 ± 0.12 % dose/g and the “Organ distribution: Liver” value [2] was 0.78 ± 0.09 % dose/g. The “Organ distribution: Lung” value [2] was 2.27 ± 0.37 % dose/g, the “Organ distribution: Muscle” value [2] was 0.34 ± 0.07 % dose/g and the “Organ distribution: Pancreas” value [2] was 0.97 ± 0.23 % dose/g. For the same compound, the “Organ distribution: Skin” value [2] was 1.16 ± 0.57 % dose/g, the “Organ distribution: Spleen” value [2] was 11.09 ± 3.35 % dose/g and the “Cell surface binding activity” value ([3]; 5 min) was 2.50 ± 0.79 % ID/10^6 cells. For the same compound, the Internalized activity ([3]; 5 min) was 1.58 ± 0.30 % ID/10^6 cells, the “Cell surface binding activity” value ([3]; 15 min) was 2.87 ± 0.10 % ID/10^6 cells and the Internalized activity ([3]; 15 min) was 4.08 ± 0.01 % ID/10^6 cells. For the same compound, the “Cell surface binding activity” value ([3]; 30 min) was 3.54 ± 0.62 % ID/10^6 cells, the Internalized activity ([3]; 30 min) was 8.29 ± 0.54 % ID/10^6 cells and the “Cell surface binding activity” value ([3]; 60 min) was 3.74 ± 0.33 % ID/10^6 cells. For the same compound, the Internalized activity ([3]; 60 min) was 12.5 ± 0.46 % ID/10^6 cells, the “Cell surface binding activity” value ([3]; 90 min) was 5.03 ± 0.41 % ID/10^6 cells and the Internalized activity ([3]; 90 min) was 20.0 ± 2.54 % ID/10^6 cells. The “Cell surface binding activity” value ([3]; 120 min) was 4.69 ± 0.45 % ID/10^6 cells, the Internalized activity ([3]; 120 min) was 18.9 ± 1.61 % ID/10^6 cells and the “Non specific binding (NSB) in LNCaP cell uptake, in words” value ([3]; blocking with 20 μM PMPA, FIG. 4) was “extremely low”. The “Internalized activity, comparison in words” value ([3]; up to 2 h at 37° C.) was “much higher than those of [^68Ga]1a and [^68Ga]5a”, the “Binding in LNCaP tumor and kidney with 2-PMPA co-injection, in words” value ([4]; 2-PMPA 2 mg/kg co-injected) was “binding was abolished in the LNCaP tumor and kidney tissue” and the “PC-3 (PSMA negative) tumor uptake in microPET, in words” value [4, 5] was “did not show any uptakes”. For the same compound, the “Uptake in microPET images, in words” value [4, 5] was “uptake was seen only in the kidneys, bladder and PSMA positive LNCaP tumor”.

— patent US10688200B2, “Urea-based prostate specific membrane antigen (PSMA) inhibitors for imaging and therapy” (Five Eleven Pharma Inc., priority 2015, dated 2020)
